Measured values as given in PMC11200585, “Prospects for Prostate Cancer Chemotherapy: Cytotoxic Evaluation and Mechanistic Insights of Quinolinequinones with ADME/PK Profile” (Biomedicines, 2024).

Experiments:
Assay type in all cases: cell-based, human
[1] = test system: SNB-75; assay: NCI-60 five-dose assay (CNS cancer); conditions: 48 h, SRB
[2] = test system: SK-OV-3; assay: NCI-60 five-dose assay (ovarian cancer); conditions: 48 h, SRB
[3] = test system: NCI-H460; assay: NCI-60 five-dose assay (non-small cell lung cancer); conditions: 48 h, SRB
[4] = test system: RPMI-8226; assay: NCI-60 five-dose assay (leukemia); conditions: 48 h, SRB
[5] = test system: OVCAR-4; assay: NCI-60 one-dose screen (ovarian cancer); conditions: 10 µM single dose, 48 h
Procedure: (§1) The obtained quinolinequinones were submitted to NCI, Bethesda, USA, and, as per standard protocol of NCI, all compounds were evaluated for their antiproliferative activity at single-dose assay (10 µM concentration in DMSO) on a panel of 60 cancer cell lines derived from leukemia, non-small-cell lung, colon, CNS, melanoma, ovarian, renal, prostate, and breast, as per protocol. Tested compounds were added to the microtiter culture plates followed by incubation for 48 h at 37 °C. Sulforhodamine B (SRB), a protein-binding dye, is used for endpoint determination. The percent of the growth of the treated cells was determined in comparison to the untreated control cells and the results of each tested compound were reported. Data from one-dose experiments pertain to the percentage growth at 10 μM [16, 17, 18].

[6] = test system: IGROV1; assay: NCI-60 one-dose screen (ovarian cancer); conditions: 10 µM single dose, 48 h
Procedure: as §1

[7] = test system: OVCAR-8; assay: NCI-60 one-dose screen (ovarian cancer); conditions: 10 µM single dose
Procedure: as §1

[8] = test system: SK-OV-3; assay: NCI-60 one-dose screen (ovarian cancer); conditions: 10 µM single dose, 48 h
Procedure: as §1

[9] = test system: OVCAR-5; assay: NCI-60 one-dose screen (ovarian cancer); conditions: 10 µM single dose, 48 h
Procedure: as §1

[10] = test system: NCI/ADR-RES; assay: NCI-60 one-dose screen (ovarian cancer); conditions: 10 µM single dose, 48 h
Procedure: as §1

[11] = test system: HCC-2998; assay: NCI-60 five-dose assay (colon cancer); conditions: 48 h, SRB
[12] = test system: MALME-3M; assay: NCI-60 five-dose assay (melanoma); conditions: 48 h, SRB
[13] = test system: HOP-62; assay: NCI-60 five-dose assay (non-small cell lung cancer); conditions: 48 h, SRB
[14] = test system: SR; assay: NCI-60 five-dose assay (leukemia); conditions: 48 h, SRB
[15] = test system: EKVX; assay: NCI-60 five-dose assay (non-small cell lung cancer); conditions: 48 h, SRB
[16] = test system: HOP-92; assay: as above; conditions: 48 h, SRB
[17] = test system: NCI-H322M; assay: as above; conditions: 48 h, SRB
[18] = test system: SNB-19; assay: NCI-60 five-dose assay (CNS cancer); conditions: 48 h, SRB
[19] = test system: SK-MEL-2; assay: NCI-60 five-dose assay (melanoma); conditions: 48 h, SRB
[20] = test system: SK-MEL-5; assay: NCI-60 five-dose assay (melanoma); conditions: 48 h, SRB
[21] = test system: RXF 393; assay: NCI-60 five-dose assay (renal cancer); conditions: 48 h, SRB
[22] = test system: A498; assay: NCI-60 five-dose assay (renal cancer); conditions: 48 h, SRB
[23] = test system: MDA-MB-468; assay: NCI-60 five-dose assay (breast cancer); conditions: 48 h, SRB
[24] = test system: SK-MEL-5; assay: NCI-60 one-dose screen (melanoma); conditions: 10 µM single dose, 48 h
Procedure: as §1

[25] = test system: UACC-62; assay: NCI-60 one-dose screen (melanoma); conditions: 10 µM single dose, 48 h
Procedure: as §1

[26] = test system: LOX IMVI; assay: NCI-60 one-dose screen (melanoma); conditions: 10 µM single dose, 48 h
Procedure: as §1

[27] = test system: SK-MEL-2; assay: NCI-60 one-dose screen (melanoma); conditions: 10 µM single dose, 48 h
Procedure: as §1

[28] = test system: MALME-3M; assay: NCI-60 one-dose screen (melanoma); conditions: 10 µM single dose, 48 h
Procedure: as §1

[29] = test system: MDA-MB-435; assay: NCI-60 one-dose screen (melanoma); conditions: 10 µM single dose, 48 h
Procedure: as §1

[30] = test system: SK-MEL-28; assay: NCI-60 one-dose screen (melanoma); conditions: 10 µM single dose
Procedure: as §1

[31] = test system: UACC-257; assay: NCI-60 one-dose screen (melanoma); conditions: 10 µM single dose, 48 h
Procedure: as §1

[32] = test system: 786-0; assay: NCI-60 five-dose assay (renal cancer); conditions: 48 h, SRB
[33] = test system: SF-539; assay: NCI-60 one-dose screen (CNS cancer); conditions: 10 µM single dose, 48 h
Procedure: as §1

[34] = test system: SNB-75; assay: NCI-60 one-dose screen (CNS cancer); conditions: 10 µM single dose, 48 h
Procedure: as §1

[35] = test system: SNB-19; assay: NCI-60 one-dose screen (CNS cancer); conditions: 10 µM single dose, 48 h
Procedure: as §1

[36] = test system: U251; assay: NCI-60 one-dose screen (CNS cancer)
Procedure: as §1

[37] = test system: SF-268; assay: NCI-60 one-dose screen (CNS cancer); conditions: 10 µM single dose, 48 h
Procedure: as §1

[38] = test system: SF-295; assay: NCI-60 one-dose screen (CNS cancer); conditions: 10 µM single dose, 48 h
Procedure: as §1

[39] = Homo sapiens, read-out: LC50 (the source's name)

CCOc1ccc(NC2=C(Cl)C(=O)c3nc(C)ccc3C2=O)cc1 [AQQ3]
TGI [1]: 2.79 µM | GI50 ([1]; Homo sapiens): 1.46 µM | LC50 (50% lethal concentration) ([1]; Homo sapiens): 5.33 µM | TGI [2]: 30.1 µM | GI50 ([2]; Homo sapiens): 11 µM | LC50 (50% net cell kill) ([2]; Homo sapiens): 82.3 µM | TGI [3]: 10.4 µM | GI50 ([3]; Homo sapiens): 3.08 µM | CC50 [3, 39]: 49.7 µM | TGI [4]: 5.33 µM | GI50 ([4]; Homo sapiens): 1.67 µM | CC50 [4, 39]: > 100 µM | GP (growth percentage) [5]: −97.52% | GP (growth percentage) [6]: −82.43% | GP (growth percentage) ([7]; 48 h): 1.03% | inhibition at 10 µM ([7]; Homo sapiens): 99% | GP (growth percentage) [8]: 79.78% | GP (growth percentage) [9]: 54.83% | GP (growth percentage) [10]: −15.63% | TGI [11]: 3.25 µM | GI50 ([11]; Homo sapiens): 1.76 µM | LC50 (concentration killing 50% of cells) ([11]; Homo sapiens): 6 µM | TGI [12]: 3.16 µM | GI50 ([12]; Homo sapiens): 1.65 µM | LC50 ([12]; Homo sapiens): 6.02 µM | TGI [13]: 3.23 µM | GI50 ([13]; Homo sapiens): 1.74 µM | LC50 (concentration killing 50% of cells) ([13]; Homo sapiens): 6.01 µM | TGI [14]: >100 µM | GI50 ([14]; Homo sapiens): 1.09 µM | CC50 [14, 39]: > 100 µM | TGI [15]: 3.12 µM | GI50 ([15]; Homo sapiens): 1.61 µM | CC50 [15, 39]: 6.05 µM | TGI [16]: 3.51 µM | GI50 ([16]; Homo sapiens): 2.01 µM | LC50 (50% lethal concentration) ([16]; Homo sapiens): 6.12 µM | TGI [17]: 3.74 µM | GI50 ([17]; Homo sapiens): 1.68 µM | CC50 [17, 39]: 8.29 µM | TGI [18]: 3.16 µM | GI50 ([18]; Homo sapiens): 1.68 µM | CC50 [18, 39]: 5.94 µM | TGI [19]: 3.03 µM | GI50 ([19]; Homo sapiens): 1.63 µM | CC50 [19, 39]: 5.64 µM | TGI [20]: 3.11 µM | GI50 ([20]; Homo sapiens): 1.72 µM | CC50 [20, 39]: 5.62 µM | TGI [21]: 2.96 µM | GI50 ([21]; Homo sapiens): 1.57 µM | LC50 ([21]; Homo sapiens): 5.61 µM | TGI [22]: 5.52 µM | GI50 ([22]; Homo sapiens): 1.56 µM | LC50 ([22]; Homo sapiens): 24.4 µM | TGI [23]: 2.92 µM | GI50 ([23]; Homo sapiens): 1.49 µM | LC50 ([23]; Homo sapiens): 5.75 µM | GP (growth percentage) [24]: −98.64% | GP (growth percentage) [25]: −43.31% | GP (growth percentage) [26]: −76.37% | GP (growth percentage) [27]: −49.77% | GP (growth percentage) [28]: −90.58% | GP (growth percentage) [29]: −83.74% | GP (growth percentage) ([30]; 48 h): 8.93% | inhibition at 10 µM ([30]; Homo sapiens): 91.1% | GP (growth percentage) [31]: −89.19% | TGI [32]: 3.19 µM | GI50 ([32]; Homo sapiens): 1.72 µM | LC50 ([32]; Homo sapiens): 5.89 µM | GP (growth percentage) [33]: −58.82% | GP (growth percentage) [34]: 96.54% | GP (growth percentage) [35]: 44.68% | GP (growth percentage) ([36]; 10 µM single dose, 48 h): 15.60% | inhibition at 10 µM ([36]; Homo sapiens, U-251, 10 µM single dose): 84.4% | GP (growth percentage) [37]: 32.33% | GP (growth percentage) [38]: 51.05%
